Assay results taken from patent US8273737B2, “Quinolizidinone M1 receptor positive allosteric modulators” (Merck Sharp & Dohme Corp., priority 2008, dated 2012).

target: T1, acetylcholine muscarinic M1 receptor (Homo sapiens, UniProt P11229); experiment: muscarinic FLIPR assay: potentiation of acetylcholine-stimulated intracellular Ca2+ in CHOnfat/hM1 cells; assay type: cell-based; settings: 4 min preincubation, then EC20 acetylcholine (3 nM final), read-out: IP Value (inflection point)
T1 construct: expressed in transfected cells; host or cells: CHOnfat (CHO cells, Geneticin-selected)
T1 sequence (P11229 1-460): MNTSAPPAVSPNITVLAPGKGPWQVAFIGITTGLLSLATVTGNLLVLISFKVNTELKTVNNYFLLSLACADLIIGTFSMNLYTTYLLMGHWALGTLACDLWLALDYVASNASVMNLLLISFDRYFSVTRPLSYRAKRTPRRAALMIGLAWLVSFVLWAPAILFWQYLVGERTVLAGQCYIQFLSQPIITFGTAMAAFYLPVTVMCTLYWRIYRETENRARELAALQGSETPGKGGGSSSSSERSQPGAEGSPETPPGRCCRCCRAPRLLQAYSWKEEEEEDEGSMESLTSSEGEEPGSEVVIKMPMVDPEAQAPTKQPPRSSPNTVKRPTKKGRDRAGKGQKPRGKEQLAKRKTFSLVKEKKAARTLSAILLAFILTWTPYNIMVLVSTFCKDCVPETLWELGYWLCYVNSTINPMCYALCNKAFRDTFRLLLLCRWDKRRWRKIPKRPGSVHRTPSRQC
Procedure: The assay studies the effect of one or several concentrations of test compounds on basal or acetylcholine-stimulated Ca^2+ levels using FLIPR.
Compounds are prepared and subjected to a preincubation period of 4 min. Thereafter, a single EC20 concentration of acetylcholine is added to each well (3 nM final). The intracellular Ca^2+ level of each sample is measured and compared to an acetylcholine control to determine any modulatory activity.
Cells: CHOnfat/hM1, hM2, hM3 or hM4 cells are plated 24 hr before the assay at a density of 18,000 cells/well (100 μL) in a 384 well plate. CHOnfat/hM1 and CHOnfat/hM3 Growth Medium: 90% DMEM (Hi Glucose); 10% HI FBS; 2 mM L-glutamine; 0.1 mM NEAA; Pen-Strep; and 1 mg/ml Geneticin, are added. For M2Gqi5CHOnfat and M4Gqi5CHOnfat cells, an additional 600 μg/ml hygromycin is added.
Equipment: 384 well plate, 120 μL addition plate; 96-well Whatman 2 ml Uniplate Incubator, 37° C., 5% CO2; Skatron EMBLA-384 Plate Washer; Multimek Pipetting System; Genesis Freedom 200 System; Mosquito System; Temo Nanolitre Pipetting System; and FLIPR^384 Fluorometric Imaging Plate Reader System are used.
Buffers. Assay Buffer: Hanks Balanced Salt Solution, with 20 mM Hepes, 2.5 mM Probenecid (Sigma P-8761) first dissolved in 1N aqueous NaOH, 1% Bovine Serum Albumin (Sigma A-9647). Dye Loading Buffer: Assay Buffer plus 1% Fetal Bovine Serum and Fluo-4AM/Pluronic Acid Mixture. 2 mM Fluo-4AM ester stock in DMSO (Molecular Probes F-14202) Concentration of 2 μM in buffer for a final concentration of 1 μM in Assay. 20% Pluronic Acid Solution stock, with a concentration of 0.04% in Buffer, 0.02% in Assay.
65 μL of 2 mM Fluo-4AM are mixed with 130 μL of 20% Pluronic Acid. The resulting solution and 650 μL FBS is added to the assay buffer for a total volume of 65 mL. Positive Controls: 4-Br-A23187: 10 mM in DMSO; final concentration 10 μM. Acetylcholine: 10 mM in water, working stock at both 20 μM and 30 μM in assay buffer, final concentration of 10 μM. This is used to check the maximum stimulation of the CHOK1/hM1 cells. 20 μM (2×) acetylcholine is added in the preincubation part of the assay, and the 30 μM (3×) stock is added in the second part. (EC20)Acetylcholine: 10 mM in water, working stock of 9 nM (3×), and final concentration in assay is 3 nM. This is used after the preincubation with test compounds. Addition of the EC20 Acetylcholine to each well with a test compound will ascertain any modulator activity. 24 wells contain 3 nM Acetylcholine alone as a control.
Determining Activity of Putative Compounds:
Screening Plate Compounds are titrated in 96-well plates (columns 2-11), 100% DMSO, started at a concentration of 15 mM (150× stock concentration), and 3-fold serial dilutions using Genesis Freedom200 System. Four 96-well plates are combined into a 384-well plate using Mosquito Nanolitre Pipetting System by transferring 1 μl of serial diluted compounds to each well, and 1 mM acetylcholine (100× stock concentration) were added as a control. Using Temo, 49 μl assay buffer is added to each well of the 384-well plate right before assay.
In a 96-well Whatman 2 ml Uniplate, 9 nM Acetylcholine (3×) is pipetted into wells corresponding to the screening compounds and into control wells. The 30 μM acetylcholine control (3×) is added into control wells and the 3× agonist plate is transferred into a 384-well plate.
Cells are washed three times with 100 μL of buffer, leaving 30 μL of buffer in each well. Using Multimek, 30 μL of Dye Loading Buffer is added into each well and incubated at 37° C., 5% CO2 for up to one hr.
After 60 min, the cells are washed three times with 100 μL of buffer, leaving 30 μL of buffer in each well. The cell plate, screening plate, and agonist addition plates are placed on the platform in the FLIPR and the door is closed. A signal test to check background fluorescence and basal fluorescence signal is performed. Laser intensity is adjusted if necessary. […]

EC50 [nM] | SMILES
640 | CSc1cc(N2CCN(Cc3cc(C(=O)O)c(=O)n4ccccc34)CC2)ccn1 [Example 153, 1-({4-[2-(methylthio)pyridine-4-yl]piperazine-1-yl}methyl)-4-oxo-4H-quinolizine-3-carboxylic acid]
614 | N#Cc1ccc(N2CCN(Cc3cc(C(=O)O)c(=O)n4ccccc34)CC2)cn1 [Example 147, 1-{[4-(6-cyanopyridin-3-yl)piperazin-1-yl]methyl}-4-oxo-4H-quinolizine-3-carboxylic acid]
270 | O=C(O)c1cc(CN2CCN(c3ccc(C(F)(F)F)cc3)CC2)c2ccccn2c1=O [Example 1, 4-oxo-1-({4-[4-(trifluoromethyl)phenyl]piperazin-1-yl}methyl)-4H-quinolizine-3-carboxylic acid]
119 | O=C(O)c1cc(CN2CCN(c3ccccc3)C(=O)C2c2cccc(F)c2)c2ccccn2c1=O (stereo not drawn) [Example 160, 1-{[2-(3-fluorophenyl)-3-oxo-4-phenylpiperazin-1-yl]methyl}-4-oxo-4H-quinolizine-3-carboxylic acid]
90 | O=C(O)c1cc(CN2CCN(c3cc4ccccc4cn3)CC2)c2ccccn2c1=O [Example 133]
616 | N#Cc1ccc(N2CCN(Cc3cc(C(=O)O)c(=O)n4ccccc34)CC2)cc1 [Example 146, 1-{[4-(4-cyanophenyl)piperazin-1-yl]methyl}-4-oxo-4H-quinolizine-3-carboxylic acid]
1650 | CS(=O)(=O)c1cc(N2CCN(Cc3cc(C(=O)O)c(=O)n4ccccc34)CC2)ccn1 [Example 154]
6900 | O=C(O)c1cc(CN2CCOCC2)c2ccccn2c1=O [Example 179, 1-(morpholin-4-ylmethyl)-4-oxo-4H-quinolizine-3-carboxylic acid]
380 | C=Cc1cc(N2CCN(Cc3cc(C(=O)O)c(=O)n4ccccc34)CC2)ccn1 [Example 148, 4-Oxo-1-{[4-(2-vinylpyridin-4-yl)piperazine-1-yl]methyl}-4H-quinolizine-3-carboxylic acid]
81 | O=C(O)c1cc(CN2CCN(c3ccc4ncsc4c3)CC2)c2ccccn2c1=O [Example 144]
408 | Cn1cc(N2CCN(Cc3cc(C(=O)O)c(=O)n4ccccc34)CC2)cn1 [Example 113]
132 | O=C(O)c1cc(CN2CCN(c3ccc(Br)cc3)CC2)c2ccccn2c1=O [Example 61]
4900 | CN1CCN(Cc2cc(C(=O)O)c(=O)n3ccccc23)C(c2cccc(F)c2)C1=O (stereo not drawn) [Example 155, 1-{[2-(3-fluorophenyl)-4-methyl-3-oxopiperazin-1-yl]methyl}-4-oxo-4H-quinolizine-3-carboxylic acid]
91 | N#Cc1cc2cc(N3CCN(Cc4cc(C(=O)O)c(=O)n5ccccc45)CC3)ccc2o1 [Example 145, 1-{[4-(2-cyano-1-benzofuran-5-yl)piperazin-1-yl]methyl}-4-oxo-4H-quinolizine-3-carboxylic acid]
71 | O=C(O)c1cc(CN2CCN(c3ccc4sccc4c3)CC2)c2ccccn2c1=O [Example 143]
